As usually defined, the IC50 is the concentration that inhibits the measured activity by half.

Entries after “also recorded” stand apart in the source; their conditions may differ. Where two headings read alike, the source gives them in different places. Where only a bound is given, the exact number is not on record here.

Series [1] concerns HEK293A WT cells. Description: Topotecan cytotoxicity in combination with TDP1 inhibitors, colorimetric test, HEK293A WT. It counts as cell-based, human. The method, then:
(§1) Cytotoxicity of the compounds was examined against human cell lines HEK293A (human embryonic kidney)—WT and TDP1-deficient (Tdp1-/-), and HeLa (cervical cancer) using an EZ4U colorimetric tests (Biomedica, Vienna, Austria) or xCELLigence DP Real-Time Cell Analyzer (ACEA Biosciences, Santa Clara, CA, USA). Cell lines were obtained from the Russian Cell Culture Collection (RCCC) Institute of Cytology RAS (St. Petersburg, Russia). The cells were grown in DMEM/F12 medium (Thermo Fisher Scientific, Waltham, MA, USA), with 1× GlutaMAX (Thermo Fisher Scientific, Waltham, MA, USA), 50 IU/mL penicillin, and 50 μg/mL streptomycin (Thermo Fisher Scientific, Waltham, MA, USA), and in the presence of 10% fetal bovine serum (Biolot, Saint-Petersburg, Russia) in 5% CO2 atmosphere. Control cells were grown in the presence of 1% DMSO where indicated. After formation of a 30–50% monolayer, tested compounds were added to the medium, and the cell culture was monitored for 3 days. […] The measurements were carried out in three parallel experiments.
There was no difference between WT and the mutant cells.

The test system of series [2] is HEK293A TDP1-/- cells. Nature of the series: Topotecan cytotoxicity alone or in combination, colorimetric test, HEK293A TDP1-/- clones C6, G6, F7. Format: cell-based, human. To be noted: HEK293A Tdp1-/- cells; combination with Tpc. The text has this: TDP1 knockout HEK293A clones were obtained in the same way as the previously described TDP1 knockout HEK293FT clones. Briefly, two 20-nt protospacer sequences flanking the first protein coding exon of human TDP1 gene were selected using https://www.benchling.com/ (accessed date 1 November 2020). Oligonucleotides were cloned in plasmid pSpCas9(BB)-2A-GFP (PX458). pSpCas9(BB)-2A-GFP (PX458) was a gift from Feng Zhang (Addgene plasmid # 48138; http://n2t.net/addgene:48138; RRID: Addgene_48138). HEK293A cells were transfected with plasmids pX458-TDP1-gRNA1 and pX458-TDP1-gRNA2 (0.25 µg of each) using Lipofectamine 3000 Reagent (Thermofisher Scientific, Waltham, MA, USA). Growth medium contained DMEM/F12 (Thermofisher Scientific, Waltham, MA, USA) 1:1, 10% FBS (Thermofisher Scientific, Waltham, MA, USA), 100 U/mL penicillin–streptomycin (Thermofisher Scientific, Waltham, MA, USA), and 1 × GlutaMAX (Thermofisher Scientific, Waltham, MA, USA). […] Single cell clones grew for two weeks, and genome DNA was analyzed on CRISPR/Cas9-mediated deletions in TDP1 gene by PCR amplification of target region with primers: TDP1-scF 5′-[…]-3′ and TDP1-scR 5′-[…]-3′. […]
Cytotoxicity of the compounds was examined against human cell lines HEK293A (human embryonic kidney)—WT and TDP1-deficient (Tdp1-/-), and HeLa (cervical cancer) using an EZ4U colorimetric tests (Biomedica, Vienna, Austria) or xCELLigence DP Real-Time Cell Analyzer (ACEA Biosciences, Santa Clara, CA, USA). […] After formation of a 30–50% monolayer, tested compounds were added to the medium, and the cell culture was monitored for 3 days. […]
In our previous work, the cytotoxic effect of Tpc and the TDP1 inhibitors, monoterpene 3-carene derivatives, was established; both were measured separately and jointly using a panel of HEK293FT TDP1 knockout isogenic clones. […] No cleavage activity was detected in the clones’ C6, G6, and F7 cell extracts in contrast to control WT and purified TDP1. […]

For series [3], the system named is HeLa cells. Description: Intrinsic cytotoxicity, EZ4U colorimetric test, HeLa. It counts as cell-based, human. Particulars: Figure 6. As for the experimental part:
as §1
(§2) The intrinsic cytotoxicity of the four lead compounds (11a–d) was examined using a colorimetric test (Figure 6).

The target in series [4] is T1, TDP1 (Homo sapiens, UniProt Q9NUW8).
T1 construct: made in house; host or cells: E. coli
T1 sequence (Q9NUW8 whole entry): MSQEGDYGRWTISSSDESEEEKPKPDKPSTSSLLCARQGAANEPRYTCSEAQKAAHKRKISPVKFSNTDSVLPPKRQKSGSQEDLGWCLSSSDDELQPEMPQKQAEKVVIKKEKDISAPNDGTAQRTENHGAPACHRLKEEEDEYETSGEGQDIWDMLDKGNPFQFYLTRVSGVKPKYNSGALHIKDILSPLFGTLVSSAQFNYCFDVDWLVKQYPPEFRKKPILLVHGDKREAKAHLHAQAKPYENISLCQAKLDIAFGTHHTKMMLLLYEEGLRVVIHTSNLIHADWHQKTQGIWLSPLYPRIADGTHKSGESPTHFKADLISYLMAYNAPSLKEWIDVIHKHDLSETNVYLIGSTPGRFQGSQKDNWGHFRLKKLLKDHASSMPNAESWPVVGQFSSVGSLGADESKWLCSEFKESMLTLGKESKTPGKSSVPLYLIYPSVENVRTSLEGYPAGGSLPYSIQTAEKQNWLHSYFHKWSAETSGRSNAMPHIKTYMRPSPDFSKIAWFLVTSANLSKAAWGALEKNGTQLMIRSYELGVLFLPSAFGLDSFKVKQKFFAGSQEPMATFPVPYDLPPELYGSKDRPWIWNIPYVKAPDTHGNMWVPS
Nature of the series: Real-time fluorescence detection of TDP1 activity (FAM/BHQ1 oligonucleotide biosensor). Format: biochemical.

The test system of series [5] is HeLa cells. Nature of the series: Topotecan cytotoxicity in combination with TDP1 inhibitors, colorimetric test, HeLa. It counts as cell-based, human. As for the experimental part: as §1
The combination index (CI) values were determined for different concentrations of Tpc and the enamines 11a–d at 2 and 5 μM. […] The CI values were calculated with the CompuSyn version 1.0 software. The CI plot at different fraction-affected (Fa) was determined for Tpc (0.3, 0.5, 1, 2, and 4 μM) and the Tdp1 inhibitors (2 and 5 μM).

Series [6] relates to HEK293A WT cells. Nature of the series: xCELLigence impedance-based real-time cell growth assay, alone or with Tpc. Further details: species or system human. As for the experimental part:
as §1
This stimulation was also confirmed for HEK293A WT cells using the xCELLigence DP Real-Time Cell Analyzer impedance-based assay (Figure 9). […] The stimulation effect depends on the concentration of compounds 11a and 11c (Figure 9B,C).
(A). Cell growth of HEK293A cells in the control wells without compounds added (black), with 50 nM Tpc (red), 40 µM 11a (dark green), or 40 µ M 11c (violet). (B,C) Cell growth of HEK293A cells with 50 nM Tpc only (red) and in combination with 5 µM (green), 10 µM (dark blue), 20 µM (pink), or 40 µM (blue) 11a (B) or 11c (C).

In series [7] the test system is HEK293A cells. Description: Intrinsic cytotoxicity, EZ4U colorimetric test, HEK293A. Particulars: Figure 6. Format: cell-based, human. As for the experimental part: as §1, §2
Setting [8] is: as repeated in Table S1, read-out: IC50.
The mark [9] stands for this setting: as repeated in Table S2, read-out: IC50.
The mark [10] stands for this setting: as repeated in Table S3, read-out: IC50.
Setting [11] is: real-time fluorescent test, 1.5 nM TDP1, 50 nM substrate, 26 °C, read-out: IC50, TDP1 activity.

Regarding `CC(=O)c1c(O)c(C)c(O)c2c1OC1=CC(=O)/C(=C(/C)NCC[C@@H](C)CCC=C(C)C)C(=O)[C@@]12C` [11a, (2R,4E)-10-Acetyl-4-(1-{[(3S)-3,7-dimethyloct-6-en-1-yl]amino}ethylidene)-11,13-dihydroxy-2,12-dimethyl-8-oxatricyclo[7.4.0.0^2,7]trideca-1(13),6,9,11-tetraene-3,5-dione], the “effect on Tpc cytotoxicity / cell growth, compared to Tpc (in words)” value in series [1] is “reduced it; also recorded: stimulation of cell growth; also recorded: stimulated cell growth”. Moreover, the “effect on cell growth in combination with Tpc, compared to Tpc (in words)” value in series [2] is “stimulation of cell growth”. The “intrinsic cytotoxicity (in words)” value in series [3] and in series [7] was “non-cytotoxic” throughout. Further, the IC50 in series [4] (setting [8]) turned out to be 0.4 µM. The “effect on Tpc cytotoxicity (in words)” value in series [5] was “enhanced topotecan’s cytotoxicity; also recorded: synergistic effect; also recorded: enhanced Tpc cytotoxicity”. Also, the “effect on cell growth with Tpc, compared to Tpc” value in series [6] (50 nM Tpc + 5, 10, 20 or 40 µM compound) is listed as “stimulated cell growth”. For the same compound, the “toxicity of compound alone (in words)” value in series [6] (40 µM compound) was “modestly toxic”.
Turning to `CC(=O)c1c(O)c(C)c(O)c2c1OC1=CC(=O)/C(=C(/C)NC/C=C(\C)CCC=C(C)C)C(=O)[C@@]12C` [11b, (2R,4E)-10-Acetyl-4-(1-{[(2E)-3,7-dimethylocta-2,6-dien-1-yl]amino}ethylidene)-11,13-dihydroxy-2,12-dimethyl-8-oxatricyclo[7.4.0.0^2,7]trideca-1(13),6,9,11-tetraene-3,5-dione], the “intrinsic cytotoxicity (in words)” value in series [3] and in series [7] was “completely suppressed cell growth at 100 μM” each time. For the same compound, the IC50 in series [4] (setting [8]) worked out at 0.32 µM.
As for `CC(=O)c1c(O)c(C)c(O)c2c1OC1=CC(=O)/C(=C(/C)NCC3=CC[C@H]4C[C@@H]3C4(C)C)C(=O)[C@@]12C` [11d, (2R,4E)-10-Acetyl-4-[1-({[(1R,5S)-6,6-dimethylbicyclo[3.1.1]hept-2-en-2-yl]methyl}amino)ethylidene]-11,13-dihydroxy-2,12-dimethyl-8-oxatricyclo[7.4.0.0^2,7]trideca-1(13),6,9,11-tetraene-3,5-dione], the “intrinsic cytotoxicity (in words)” value in series [3] and in series [7] was “completely suppressed cell growth at 100 μM” in each case. Besides, the half-inhibitory concentration (IC50) in series [4] (setting [8]) amounted to 0.23 µM.
Take `C=C(C)[C@@H]1CC=C(CN/C(C)=C2\C(=O)C=C3Oc4c(C(C)=O)c(O)c(C)c(O)c4[C@@]3(C)C2=O)CC1` [11e, (2R,4E)-10-Acetyl-11,13-dihydroxy-2,12-dimethyl-4-[1-({[(4S)-4-(prop-1-en-2-yl)cyclohex-1-en-1-yl]methyl}amino)ethylidene]-8-oxatricyclo[7.4.0.0^2,7]trideca-1(13),6,9,11-tetraene-3,5-dione]: the IC50 in series [4] (setting [8]), in series [4] (setting [9]), in series [4] (setting [10]) and in series [4] (setting [11]) was greater than 10 µM in each case. The “IC50, TDP1 activity” value in series [4] (real-time fluorescent test, 1.5 nM TDP1, 50 nM substrate, 26 °C) is “did not inhibit the enzyme”.
In the case of `CC(=O)c1c(O)c(C)c(O)c2c1OC1=CC(=O)/C(=C(/C)NCCCC(=O)OCC[C@H](C)CCC=C(C)C)C(=O)[C@@]12C` [13a, (3R)-3,7-Dimethyloct-6-en-1-yl 4-({1-[(2R,4E)-10-acetyl-11,13-dihydroxy-2,12-dimethyl-3,5-dioxo-8-oxatricyclo[7.4.0.0^2,7]trideca-1(13),6,9,11-tetraen-4-ylidene]ethyl}amino)butanoate], the IC50 in series [4] (setting [8]), in series [4] (setting [9]), in series [4] (setting [10]) and in series [4] (setting [11]) was greater than 10 µM throughout.
Consider `CC(=O)c1c(O)c(C)c(O)c2c1OC1=CC(=O)/C(=C(/C)NCCCC(=O)OC/C=C(\C)CCC=C(C)C)C(=O)[C@@]12C` [13b, (2E)-3,7-Dimethylocta-2,6-dien-1-yl 4-({1-[(2R,4E)-10-acetyl-11,13-dihydroxy-2,12-dimethyl-3,5-dioxo-8-oxatricyclo[7.4.0.0^2,7]trideca-1(13),6,9,11-tetraen-4-ylidene]ethyl}amino)butanoate], for which the IC50 in series [4] (setting [8]), in series [4] (setting [9]), in series [4] (setting [10]) and in series [4] (setting [11]) was greater than 10 µM each time.
As to `CC(=O)c1c(O)c(C)c(O)c2c1OC1=CC(=O)/C(=C(/C)NCCCC(=O)OCCC3=CC[C@H]4C[C@@H]3C4(C)C)C(=O)[C@@]12C` [13c, 2-[(1R,5S)-6,6-Dimethylbicyclo[3.1.1]hept-2-en-2-yl]ethyl 4-({1-[(2R,4E)-10-acetyl-11,13-dihydroxy-2,12-dimethyl-3,5-dioxo-8-oxatricyclo[7.4.0.0^2,7]trideca-1(13),6,9,11-tetraen-4-ylidene]ethyl}amino)butanoate], the 50% inhibitory concentration (IC50) in series [4] (setting [8]), in series [4] (setting [9]), in series [4] (setting [10]) and in series [4] (setting [11]) was greater than 10 µM each time.
`CC(=O)c1c(O)c(C)c(O)c2c1OC1=CC(=O)/C(=C(/C)NCCCC(=O)OCC3=CC[C@H]4C[C@@H]3C4(C)C)C(=O)[C@@]12C` [13d, [(1R,5S)-6,6-Dimethylbicyclo[3.1.1]hept-2-en-2-yl]methyl 4-({1-[(2R,4E)-10-acetyl-11,13-dihydroxy-2,12-dimethyl-3,5-dioxo-8-oxatricyclo[7.4.0.0^2,7]trideca-1(13),6,9,11-tetraen-4-ylidene]ethyl}amino)butanoate]: the IC50 in series [4] (setting [8]), in series [4] (setting [9]), in series [4] (setting [10]) and in series [4] (setting [11]) was greater than 10 µM throughout.
As for `C=C(C)[C@@H]1CC=C(COC(=O)CCCN/C(C)=C2\C(=O)C=C3Oc4c(C(C)=O)c(O)c(C)c(O)c4[C@@]3(C)C2=O)CC1` [13e, [(4S)-4-(Prop-1-en-2-yl)cyclohex-1-en-1-yl]methyl 4-({1-[(2R,4E)-10-acetyl-11,13-dihydroxy-2,12-dimethyl-3,5-dioxo-8-oxatricyclo[7.4.0.0^2,7]trideca-1(13),6,9,11-tetraen-4-ylidene]ethyl}amino)butanoate], the IC50 in series [4] (setting [8]), in series [4] (setting [9]), in series [4] (setting [10]) and in series [4] (setting [11]) was greater than 10 µM in each case.

(Values after publication PMC8301776, “New Hybrid Compounds Combining Fragments of Usnic Acid and Monoterpenoids for Effective Tyrosyl-DNA Phosphodiesterase 1 Inhibition” (Biomolecules, 2021).)
